Source: patent publication US20240389589A1, “CORROSION INHIBITORS FOR NITROGEN INHIBITOR FORMULATION” (Verdesian Life Sciences U.S., LLC, priority 2021, published 2024)

Legend:
[1] = Nitrapyrin volatilization: weight loss on a heated balance at 100° C.; assay type: physicochemical; conditions: for weight as a percent of original weight: heated balance 100° C.; for nitrapyrin sulfolane volatility ratio: nitrapyrin without solvent vs. solvent alone
Method: Three materials were placed on a heated balance at […] and had their weights observed every minute for 10 minutes, as a percent of original weight. The materials were: • 1. pure nitrapyrin, • 2. 25% w/w solution of nitrapyrin in sulfolane, and • 3. solution of 25% nitrapyrin salt with equimolar (on acid basis) amount of maleic-itaconic copolymer, also in sulfolane (nitrapyrin/polyanionic polymer salt).
Therefore, the disclosed nitrapyrin-organic acid ionic mixtures substantially reduce the volatilization of nitrapyrin.
Tests were run to determine the relative volatility of the nitrapyrin solution without polyanionic polymer.

[2] = Formation of solutions of nitrapyrin salts at 20% w/w nitrapyrin and grading of solutions; assay type: physicochemical; design: key: 5: Fully dissolved; 4: Mostly dissolved; 3: Mostly not dissolved; 2: Not dissolved; 1: Additional precipitate
Text: Example 2. Formation of Solutions of Nitrapyrin Salts and Grading of Solutions

[3] = solvent A dipropylene glycol, 20% w/w nitrapyrin
[4] = solvent B PT700, 20% w/w nitrapyrin
[5] = solvent C PT250, 20% w/w nitrapyrin
[6] = solvent D triethylene glycol, 20% w/w nitrapyrin
[7] = solvent E tripropylene glycol, 20% w/w nitrapyrin
[8] = solvent F propylene carbonate, 20% w/w nitrapyrin
[9] = solvent G triacetin, 20% w/w nitrapyrin
[10] = solvent H Agnique AMD810, 20% w/w nitrapyrin
[11] = solvent I Agnique AMD3L, 20% w/w nitrapyrin
[12] = solvent J Rhodiasolv ADMA10, 20% w/w nitrapyrin
[13] = solvent K Rhodiasolv ADMA810, 20% w/w nitrapyrin
[14] = solvent L Rhodiasolv PolarClean, 20% w/w nitrapyrin

Row | Molecule | grade of solution [2, 3] | grade of solution [2, 4] | grade of solution [2, 5] | grade of solution [2, 6] | grade of solution [2, 7] | grade of solution [2, 8] | grade of solution [2, 9] | grade of solution [2, 10] | grade of solution [2, 11] | grade of solution [2, 12] | grade of solution [2, 13] | grade of solution [2, 14] | other results
1 | Clc1cccc(C(Cl)(Cl)Cl)n1 [nitrapyrin without solvent, nitrapyrin] | – | – | – | – | – | – | – | – | – | – | – | – | weight as a percent of original weight ([1]; experiment time 0 min): 100.00%; weight as a percent of original weight ([1]; experiment time 1 min): 99.20%; weight as a percent of original weight ([1]; experiment time 2 min): 98.56%; weight as a percent of original weight ([1]; experiment time 3 min): 97.92%; weight as a percent of original weight ([1]; experiment time 4 min): 96.00%; weight as a percent of original weight ([1]; experiment time 5 min): 94.87%; weight as a percent of original weight ([1]; experiment time 6 min): 93.75%; weight as a percent of original weight ([1]; experiment time 7 min): 92.63%; weight as a percent of original weight ([1]; experiment time 8 min): 90.87%; weight as a percent of original weight ([1]; experiment time 9 min): 89.90%; weight as a percent of original weight ([1]; experiment time 10 min): 89.10%; nitrapyrin sulfolane volatility ratio ([1]; Delta 3-10): 401%; nitrapyrin sulfolane volatility ratio ([1]; Delta 4-10): 392%; nitrapyrin sulfolane volatility ratio ([1]; Delta 5-10): 393%
2 | O=C(O)CCC(=O)O [succinic] | 3 | 4 | 1 | 2 | 3 | 3 | 2 | 5 | 5 | 5 | 5 | 5 | –
3 | O=C(O)C(O)C(O)C(=O)O (centres unmarked) [tartaric] | 2 | 2 | 1 | 1 | 2 | 2 | 2 | 5 | 5 | 5 | 5 | 5 | –
4 | adipic | 2 | 3 | 1 | 3 | 4 | 3 | 3 | 5 | 5 | 5 | 5 | 5 | –
5 | malic | 2 | 4 | 1 | 2 | 2 | 3 | 3 | 5 | 5 | 5 | 5 | 5 | –
